Data published in ChEMBL document CHEMBL6134780, “Halogenated retinoid derivatives as dual RARα and RXRα modulators for treating acute promyelocytic leukemia cells” (Eur J Med Chem, 2024).
The source made the active and inactive calls. The calls are words filed in the database; no cut-off is given here.

How the values were obtained:
[1] = tested on: NB-4; test: Cell cycle arrest in human NB4 cells assessed as accumulation of cells at G2/M phase at 0.5 uM incubated for 6 days for DAPI staining based flow cytometric analysis (reference value: 15 %); assay type: functional; conditions: time 6 day
[2] = molecular target: T1, Retinoic acid receptor gamma (Homo sapiens) (UniProt P13631); test: Agonist activity at Gal4-fused full length human RARgamma LBD transfected in HEK293T cells co-transfected with pG5luc reporter and Renilla-luc assessed as transactivation by measuring maximal efficacy incubated for 12 hrs by dual luciferase reporter gene assay relative to control; assay type: cell-based; conditions: filed as agonist
T1 sequence (whole entry): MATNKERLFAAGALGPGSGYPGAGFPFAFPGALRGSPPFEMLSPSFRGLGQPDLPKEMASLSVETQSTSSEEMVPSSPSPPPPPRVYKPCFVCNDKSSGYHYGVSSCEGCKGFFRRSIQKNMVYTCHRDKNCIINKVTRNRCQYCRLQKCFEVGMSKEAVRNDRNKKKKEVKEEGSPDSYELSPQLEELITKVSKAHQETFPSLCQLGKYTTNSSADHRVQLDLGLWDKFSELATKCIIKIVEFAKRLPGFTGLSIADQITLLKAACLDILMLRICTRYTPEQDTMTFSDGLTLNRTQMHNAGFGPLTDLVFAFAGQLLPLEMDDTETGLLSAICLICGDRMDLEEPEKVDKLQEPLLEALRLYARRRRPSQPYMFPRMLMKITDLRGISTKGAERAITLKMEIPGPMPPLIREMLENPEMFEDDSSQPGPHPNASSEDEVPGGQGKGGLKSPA

[3] = tested on: NB-4; test: Antiproliferative activity against human NB4 cells assessed as inhibition of cell viability at 0.1 uM incubated for 3 days by CCK8 assay relative to control; assay type: functional; conditions: NB-4, 72 h, time 3 day
[4] = tested on: NB-4; test: Induction of cell differentiation in human NB4 cells at 0.5 uM incubated for 4 to 6 days by CD11b staining based flow cytometric analysis; assay type: functional; conditions: time 4-6 day
[5] = Cell cycle arrest in human ATRA-resistant NB4-LR2 cells assessed as accumulation of cells at S phase at 1 uM incubated for 12 hrs by DAPI staining based flow cytometric analysis (reference value: 12 %); assay type: functional
[6] = Induction of apoptosis in human ATRA-resistant NB4-LR2 cells assessed as necrotic cells at 1 uM incubated for 24 hrs by Annexin V-FITC/PI staining based flow cytometric analysis (reference value: 0.08 %); assay type: functional
[7] = Cell cycle arrest in human ATRA-resistant NB4-LR2 cells assessed as accumulation of cells at G0/G1 phase at 1 uM incubated for 12 hrs by DAPI staining based flow cytometric analysis (reference value: 42 %); assay type: functional
[8] = tested on: HEK293T; test: Agonist activity at full length RARalpha LBD R276E mutant (unknown origin) transfected in HEK293T cells co-transfected with pG5luc reporter and Renilla-luc at 1 uM incubated for 12 hrs by luciferase reporter gene assay; assay type: cell-based; conditions: Homo sapiens, filed as agonist
[9] = tested on: NB-4; test: Cell cycle arrest in human NB4 cells assessed as accumulation of cells at sub-G1 phase at 1 uM incubated for 12 hrs by DAPI staining based flow cytometric analysis (reference value: 2 %); assay type: functional
[10] = tested on: NB-4; test: Cell cycle arrest in human NB4 cells assessed as accumulation of cells at G0/G1 phase at 1 uM incubated for 12 hrs by DAPI staining based flow cytometric analysis (reference value: 51 %); assay type: functional
[11] = tested on: NB-4; test: Induction of cell death in M phase synchronized human NB4 cells assessed as reduction in mitotic cells at 0.5 uM preincubated for 4 days followed by release from thymidine block for 10 hrs by immunofluorescence staining based analysis; assay type: functional; conditions: time 106.0 hrs
[12] = tested on: NB-4; test: Induction of apoptosis in human NB4 cells assessed as early apoptotic cells at 1 uM incubated for 24 hrs by Annexin V-FITC/PI staining based flow cytometric analysis (reference value: 4.37 %); assay type: functional
[13] = tested on: NB-4; test: Cell cycle arrest in human NB4 cells assessed as accumulation of cells at G2/M phase at 1 uM incubated for 12 hrs by DAPI staining based flow cytometric analysis (reference value: 26 %); assay type: functional
[14] = tested on: NB-4; test: Induction of apoptosis in human NB4 cells assessed as late apoptotic cells at 1 uM incubated for 24 hrs by Annexin V-FITC/PI staining based flow cytometric analysis (reference value: 3.20 %); assay type: functional
[15] = Induction of apoptosis in human ATRA-resistant NB4-LR2 cells assessed as late apoptotic cells at 1 uM incubated for 24 hrs by Annexin V-FITC/PI staining based flow cytometric analysis (reference value: 7.23 %); assay type: functional
[16] = tested on: K562; test: Induction of cell differentiation in human K562 cells at 0.5 uM incubated for 6 days by CD11b staining based flow cytometric analysis; assay type: functional; conditions: time 6.0 day
[17] = tested on: Jurkat; test: Induction of cell differentiation in human Jurkat cells at 0.5 uM incubated for 6 days by CD11b staining based flow cytometric analysis; assay type: functional; conditions: time 6.0 day
[18] = tested on: K562; test: Induction of apoptosis in human K562 cells assessed as late apoptotic cells at 2 uM incubated for 24 hrs by Annexin V-FITC/PI staining based flow cytometric analysis (reference value: 5.98 %); assay type: functional
[19] = Induction of apoptosis in human ATRA-resistant NB4-LR2 cells assessed as viable cells at 1 uM incubated for 24 hrs by Annexin V-FITC/PI staining based flow cytometric analysis (reference value: 87.30 %); assay type: functional; conditions: read-out: Activity
[20] = tested on: K562; test: Induction of apoptosis in human K562 cells assessed as viable cells at 2 uM incubated for 24 hrs by Annexin V-FITC/PI staining based flow cytometric analysis (reference value: 90.02 %); assay type: functional; conditions: read-out: Activity
[21] = tested on: K562; test: Effect on cell cycle population in human K562 cells at 0.5 uM by DAPI staining based flow cytometric analysis; assay type: functional
[22] = Induction of apoptosis in human ATRA-resistant NB4-LR2 cells assessed as early apoptotic cells at 1 uM incubated for 24 hrs by Annexin V-FITC/PI staining based flow cytometric analysis (reference value: 5.38 %); assay type: functional
[23] = tested on: K562; test: Induction of apoptosis in human K562 cells assessed as early apoptotic cells at 2 uM incubated for 24 hrs by Annexin V-FITC/PI staining based flow cytometric analysis (reference value: 0.91 %); assay type: functional
[24] = species on record: Homo sapiens; test: Binding affinity to N-terminal His-tagged human RARalpha LBD R276E mutant extracted from Escherichia coli BL21 (DE3) cells by ITC analysis
[25] = Cell cycle arrest in human ATRA-resistant NB4-LR2 cells assessed as accumulation of cells at sub-G1 phase at 1 uM incubated for 12 hrs by DAPI staining based flow cytometric analysis (reference value: 18 %); assay type: functional
[26] = tested on: NB-4; test: Cell cycle arrest in human NB4 cells assessed as accumulation of cells at sub-G1 phase at 0.5 uM incubated for 6 days for DAPI staining based flow cytometric analysis (reference value: 6 %); assay type: functional; conditions: time 6 day
[27] = tested on: NB-4; test: Induction of apoptosis in human NB4 cells assessed as necrotic cells at 1 uM incubated for 24 hrs by Annexin V-FITC/PI staining based flow cytometric analysis (reference value: 0.07 %); assay type: functional
[28] = tested on: NB-4; test: Induction of cell differentiation in human NB4 cells assessed as NBT positive cells at 0.5 uM incubated for 6 days by Nitro Blue tetrazolium chloride based microscopic analysis (reference value: 0 %); assay type: functional; conditions: time 6 day
[29] = Cell cycle arrest in human ATRA-resistant NB4-LR2 cells assessed as accumulation of cells at G2/M phase at 1 uM incubated for 12 hrs by DAPI staining based flow cytometric analysis (reference value: 28 %); assay type: functional
[30] = tested on: NB-4; test: Cell cycle arrest in human NB4 cells assessed as accumulation of cells at S phase at 1 uM incubated for 12 hrs by DAPI staining based flow cytometric analysis (reference value: 20 %); assay type: functional
[31] = tested on: NB-4; test: Cell cycle arrest in human NB4 cells assessed as accumulation of cells at S phase at 0.5 uM incubated for 6 days for DAPI staining based flow cytometric analysis (reference value: 27 %); assay type: functional; conditions: time 6 day
[32] = tested on: ATRA-resistant NB4-LR2; test: Antiproliferative activity against human ATRA-resistant NB4-LR2 cells assessed as effect on cell viability up to 2 uM incubated for 3 days by CCK8 assay; assay type: functional, cell-based; conditions: time 3.0 day
[33] = tested on: K562; test: Induction of apoptosis in human K562 cells assessed as necrotic cells at 2 uM incubated for 24 hrs by Annexin V-FITC/PI staining based flow cytometric analysis (reference value: 2.19 %); assay type: functional
[34] = tested on: NB-4; test: Cell cycle arrest in human NB4 cells assessed as accumulation of cells at G0/G1 phase at 0.5 uM incubated for 6 days for DAPI staining based flow cytometric analysis (reference value: 52 %); assay type: functional; conditions: time 6 day
[35] = tested on: NB-4; test: Induction of apoptosis in human NB4 cells assessed as viable cells at 1 uM incubated for 24 hrs by Annexin V-FITC/PI staining based flow cytometric analysis (reference value: 92.36 %); assay type: functional; conditions: read-out: Activity
[36] = tested on: NB-4; test: Induction of apoptosis in human NB4 cells assessed as early apoptotic cells at 5 uM incubated for 24 hrs by Annexin V-FITC/PI staining based flow cytometric analysis (reference value: 4.37 %); assay type: functional
[37] = tested on: NB-4; test: Induction of apoptosis in human NB4 cells assessed as viable cells at 5 uM incubated for 24 hrs by Annexin V-FITC/PI staining based flow cytometric analysis (reference value: 92.36 %); assay type: functional; conditions: read-out: Activity
[38] = Induction of apoptosis in human ATRA-resistant NB4-LR2 cells assessed as viable cells at 5 uM incubated for 24 hrs by Annexin V-FITC/PI staining based flow cytometric analysis (reference value: 87.30 %); assay type: functional; conditions: read-out: Activity
[39] = tested on: NB-4; test: Induction of apoptosis in human NB4 cells assessed as late apoptotic cells at 5 uM incubated for 24 hrs by Annexin V-FITC/PI staining based flow cytometric analysis (reference value: 3.20 %); assay type: functional
[40] = tested on: NB-4; test: Induction of apoptosis in human NB4 cells assessed as necrotic cells at 5 uM incubated for 24 hrs by Annexin V-FITC/PI staining based flow cytometric analysis (reference value: 0.07 %); assay type: functional
[41] = Induction of apoptosis in human ATRA-resistant NB4-LR2 cells assessed as early apoptotic cells at 5 uM incubated for 24 hrs by Annexin V-FITC/PI staining based flow cytometric analysis (reference value: 5.38 %); assay type: functional
[42] = Induction of apoptosis in human ATRA-resistant NB4-LR2 cells assessed as late apoptotic cells at 5 uM incubated for 24 hrs by Annexin V-FITC/PI staining based flow cytometric analysis (reference value: 7.23 %); assay type: functional
[43] = Induction of apoptosis in human ATRA-resistant NB4-LR2 cells assessed as necrotic cells at 5 uM incubated for 24 hrs by Annexin V-FITC/PI staining based flow cytometric analysis (reference value: 0.08 %); assay type: functional

CC1=C(/C=C/C(C)=C/C=C/C(C)=C/C(=O)O)C(C)(C)CCC1 [TRETINOIN]
Activity [1]: 16%
Emax [2]: 100%
inhibition at 0.1 µM [3]: ~40%
Activity [4]: Active
Activity [5]: 11%
Activity [6]: 0.08%
Activity [7]: 43%
Activity [8]: Active; Partial Impairment Observed
Activity [9]: 2%
Activity [10]: 65%
Activity [11]: Active
Activity [12]: 3.11%
Activity [13]: 23%
Activity [14]: 6.37%
Activity [15]: 7.92%
Activity [16]: inactive
Activity [17]: inactive
Activity [18]: 6.84%
viability at 1 µM [19]: 88.6%
viability at 2 µM [20]: 89.5%
Activity [21]: inactive
Activity [22]: 3.39%
Activity [23]: 1.04%
Activity [24]: inactive
Activity [25]: 19%
Activity [26]: 3%
Activity [27]: 0.13%
Activity [28]: 33%
Activity [29]: 27%
Activity [30]: 10%
Activity [31]: 17%
Activity [32]: inactive
Activity [33]: 2.01%
Activity [34]: 64%
viability at 1 µM [35]: 90.4%

O=[N+]([O-])/C=C/c1cccc2ccccc12
Activity [36]: 9.62%
viability at 5 µM [37]: 78.6%
viability at 5 µM [38]: 42.3%
Activity [39]: 11.26%
Activity [40]: 0.48%
Activity [41]: 28.83%
Activity [42]: 28.61%
Activity [43]: 0.29%
